Where “and” joins values, the source holds several entries; their conditions need not be identical. Equal values may be shown once.
Experiments:
[1] = test system: GTC seizures in human patients; experiment: THC treatment of several human patients with GTC seizures (responder rate, one-year remission rate, adverse effects); type: in vivo; conditions: for Increase in 1 YR Seizure Remission Rate over expected: expected 5%; for THC-related adverse event: one adult patient
Source text: Several human patients commenced treatment with THC after a first visit. More details about the treatment are provided below. The group included 82 total adult patients and 12 total pediatric patients. Of those 94 patients, 34 adult patients and 10 pediatric patients had experienced at least one GTC seizure in the year preceding the first visit. At the time of first visit, 14 of the 34 adult patients and 8 of the 10 pediatric patients had never taken THC. At the time of first visit, five of the 34 adult patients and two of the 10 pediatric patients were consistently/regularly taking THC. At the time of first visit, 15 of the 34 adult patients and none of the 10 pediatric patients were inconsistently/irregularly taking THC or had taken THC at some point in the past and were no longer taking THC.
At the time of first visit, 16 of the 34 adult patients had treatment resistant epilepsy, which means the patients had persistent GTC seizures despite taking two different anti-seizure medications at, or prior to, the first visit. At the time of first visit, all 10 of the pediatric patients had treatment resistant epilepsy.
The first visit means the date when the patient first saw the doctor for evaluation for THC treatment for GTC seizures. Responder rates means the percentage of patients that had at least a 50% reduction in GTC seizure frequency over a one-year treatment period with THC. One-year remission rate means the percentage of patients that experienced no GTC seizures in a one-year period after commencing THC treatment.
All of the 34 adult patients and 10 pediatric patients were taking other anti-seizure medications or had other anti-seizure treatment at the time of the first visit. […] Those anti-seizure medications and other anti-seizure treatments included: lamotrigine, topiramate, topiramate XR, vagus nerve stimulation, phenytoin, valproic acid, zonisamide, benzodiazepine, surgery, levetiracetam, carbamazepine, oxcarbazepine, lacosamide, perampanel, clonazepam, phenobarbial, pregabalin, gabapentin, rufinamide, CBD (e.g., Epidiolex), clobazam, and felbamate. Also, all patients who were using THC oral dosages were using products that included no CBD or products that included CBD in doses well below the therapeutic dose for Epidiolex.
THC Treatment for the 82 adult patients varied. Many of the patients smoked marijuana, so the dosage and/or timing of the dosage was unknown. Because CBD is delivered at sub-therapeutic levels when marijuana is smoked, it is acceptable to attribute any therapeutic effect to THC. The label for the CBD drug Epidiolex includes dosages starting at 5 mg/kg daily for all indications, and increasing to maintenance doses of 10 mg/kg or 20 mg/kg for Lennox-Gestault Syndrome and Dravet Syndrome, and increasing to maintenance doses of 25 mg/kg per day for Tuberous Sclerosis Complex. When 1 gram of cannabis is smoked, it delivers CBD to the lungs in doses well below the therapeutic dose levels prescribed for Epidiolex. Some other patients took unknown dosages of THC orally.

[2] = test system: seizures / EEG abnormalities in human patient; experiment: Example 8 pediatric patient with atonic seizures, myoclonic seizures and Doose syndrome (24 hour EEG, seizures); type: in vivo
Description: They had continued to experience several seizures per day of all types despite multiple combination regimens of prescription anti-seizure medications and a trial of THC-A transdermal patch and CBD (Charlotte's Web) oral tincture and CBD transdermal patches up until the day they were first evaluated for cannabinoid treatment (age 4.5 on Mar. 8, 2016). […] They were then prescribed 1 mg oral THC tincture three times per day. On Mar. 8, 2018, the patient returned for follow-up where it was learned that all cannabinoids had been discontinued. […] The THC-A transdermal patch was restarted at 1.875 mg/day with a reduction in EEG abnormalities to 400/24 hours. Oral THC 2.5 mg BID was then restarted with a further reduction in EEG abnormalities to 20/24 hours. […] Due to the significant reduction in brain pre-seizure activity after restarting THC and concerns that there are effective dosage variations among transdermal products, the patient was then prescribed oral THC 2.5 mg BID which they continue to take.

[3] = 14 adult patients who had never taken THC prior to first visit

CCCCCc1cc(O)c2c(c1)OC(C)(C)[C@@H]1CCC(C)=C[C@@H]21 [THC, Delta-9-tetrahydrocannabinol]
GTC seizure outcome, individual pediatric patient ([1]; 1.8 mg THC transdermal patch daily+2.5 mg oral THC at bedtime, 5 mg CBD BID, 63.3 kg): 50% reduction in GTC seizure rates in a one-year period following THC treatment | GTC seizure outcome, individual pediatric patient ([1]; 2-3 mg THC+30 mg CBD orally, BID, 17.3 kg): no GTC seizures in a one-year period following THC treatment | GTC seizure outcome, individual pediatric patient ([1]; 5-10 mg THC+10-20 mg CBD orally, daily at bedtime, 34.1 kg): no GTC seizures in a one-year period following THC treatment | adverse effects ([1]; 12 children): none experienced adverse effects | 1 YR Seizure Remission Rate [1, 3]: 36% | Responder Rate (at least 50% reduction in GTC seizure frequency over one year) [1, 3]: 71% | Adverse Events ([1]; 82 adult patients): 2% (2/82) | THC-related adverse effects ([1]; 82 adults treated with THC (sleepiness; reduced mental clarity)): only two patients experienced THC-related adverse effects | Increase in 1 YR Seizure Remission Rate over expected ([1]; Adult, calculated using the 29% (2/7) remission rate): ~**5.8X | GTC seizure outcome, individual pediatric patient ([1]; GTCs and cerebral palsy, CBD 20 mg with 6% THC (1.2 mg) per day orally): resolution of all GTC seizure activity | Adverse Events ([1]; Pediatric patients (0/13)): 0% (0/13) | Increase in 1 YR Seizure Remission Rate over expected ([1]; Pediatric, calculated using the 37.5% (3/8) remission rate): ~***7.5X | effect as rescue treatment, individual pediatric patient ([1]; THC (only), 10 mg/mL, 1-3 mg THC as rescue): complete resolution of seizures | patients with 50% reduction in GTC seizure rates and no GTC seizures in a one-year period following THC treatment ([1]; of 34 adult patients): 15 patients | patients with 50% reduction in GTC seizure rates but not seizure free for a one-year period following THC treatment ([1]; of 34 adult patients): 9 patients | patients without 50% reduction in GTC seizure rates and not seizure free for a one-year period following THC treatment ([1]; of 34 adult patients): 10 patients | THC-related adverse event ([1]; 2-3 mg THC and 38 mg CBD orally TDD): sleepiness | THC-related adverse event ([1]; unknown amounts of THC orally): mental unclarity | GTC seizure outcome, individual pediatric patient ([1]; same patient, 60-70 mg THC orally TDD in 2 divided doses): continued seizure remission | GTC seizure outcome, individual pediatric patients ([1]; two patients, 4-12 mg THC TDD): no GTC seizures in a one-year period following THC treatment and 50% reduction in GTC seizure rate in a one-year period following THC treatment | EEG abnormalities ([2]; Oral THC 2.5 mg BID restarted after THC-A patch): 20 /24 hours | observable seizures ([2]; Oral THC 2.5 mg BID with THC-A patch): no observable seizures

From US12036228B2, “Treatment of seizure disorders” (Shackelford Pharma Inc., priority 2022, dated 2024)
